Key:
[1] = system: senescent cells in irradiated human laryngeal tumors, palbociclib treated human melanoma cell xenografts, mouse bleomycin-injected lung, mouse lung adenomas; experiment: Streptavidin-HRP/DAB labeling of tissue sections; details: FIG. 5ai-di in comparison to FIGS. 2,3,4
From the text: In the inventive example 2, the derivative LG13 was used to detect senescent cells in tissue sections using streptavidin-horse radish peroxidase (HRP)/DAB labeling.
Tissue sections were obtained from paraffin embedded, formalin fixed: (a) irradiated human laryngeal tumors, (b) palbociclib treated human melanoma cell xenografts, (c) mouse bleomycin-injected lung and (d) mouse lung adenomas. Subsequently, they were immobilized on glass microscopy slides by standard procedures and processed as follows: • a. Deparaffinization for 5 min at room temperature in xylene • b. Gradual rehydration in solutions of descending concentration of ethanol (100%, 80%, 70%, 50% v/v) and finally in TBS (Tris-buffered saline) or PBS (Phosphate-buffered saline) solution. • c. Blocking of endogenous peroxidase activity with 3% H2O2 for 10 min. • d. Gradual dehydration of biopsy material in 50% (v/v) ethanol followed by 70% (v/v) ethanol for 5 min each step. • e. Application of the new compound LG13, linked with biotin, diluted in ethanol and filtered, on biopsy material for 10 min. • f. Quick wash in 50% (v/v) ethanol. • g. Transfer and wash in TBS or PBS solution. • h. Incubation in streptavidin-HRP (horse radish peroxidase) conjugated (dilution 1/200), for ½ hr at room temperature. • i. Quick wash in TBS or PBS solution. • j. […]

[2] = system: senescent cells in U2OS hCdt1 Tet-ON cell line, palbociclib-induced human melanoma xenograft mouse model, irradiated human breast tissue; experiment: Hybrid histo-/immunochemical assay (HIC) compared with SBB histochemical stain (HC)
Experimental: • 1. Compound (LG13) • 2. 100% ethanol (100% EtOH) • 3. Parafilm • 4. Fritted glass filter of medium porosity • 5. Airtight Dye Container 2.2.2 General Procedure: • 1. Dissolve 40 mg of the compound (LG13) in 7.4 ml 100% EtOH in a glass beaker and cover it with parafilm. • 2. Incubate at 56° C. in a waterbath for 120 min until the compound is completely dissolved. 2.3. General Method for Compound (LG13) Staining 2.3.1 Materials: • 1. Xylene • 2. […] Syringe • 4. 13 mm filter, membrane 0.22 μm • 5. Soft paper (dry or dipped in ethanol) • 6. Anti-biotin antibody ([Hyb-8] ab201341, Abcam) • 7. Ultravision Quanto Detection System HRP DAB kit (Cat no: TL-125-QHD) • 8. Glycerol (Sigma-Aldrich) • 9. Tris Buffered Saline (TBS; 10×): 1.5 M NaCl, 0.1 M Tris-HCl, pH 7.4. Store at 4° C. • 10. 0.5% Triton X/TBS: 0.5 ml Triton X diluted in 99.5 ml TBS • 11. Mounting media Glycergel (DakoCytomation). • 12. Light Microscope • 13. Anti-p21^WAF1/Cip1 mouse primary antibody [(F-5)(sc-6246) Santa-Cruz] • 14. […] Fluorescence microscope 2.3.2 General Procedures: 2.3.2.1 General Staining Protocol for Cells Mounted on Coverslips • 1. […] The staining reaction is monitored under the light microscope until detection of the signal (average time 5-8 min). • 8. […] The staining reaction is monitored under the light microscope until detection of the dark brown signal (average time 30 sec-1 min) at RT 1. • 20. […]

CC1(COC(=O)CCCC[C@H]2SC[C@H]3NC(=O)N[C@H]32)Nc2cccc3c(/N=N/c4ccc(/N=N/c5ccccc5)c5ccccc45)ccc(c23)N1 (stereo partly drawn) [LG13, (2-methyl-6-((E)-(4-((E)-phenyldiazenyl)naphthalen-1-yl)diazenyl)-2,3-dihydro-1H-perimidin-2-yl)methyl 5-((3aR,4R,6aS)-2-oxohexahydro-1H-thieno[3,4-d]imidazol-4-yl)pentanoate]
recognition of senescent cells compared to histochemical staining [1]: makes easier the recognition of senescent cells
IHC staining relative to SBB HC staining ([2]; U2OS hCdt1 Tet-ON, palbociclib melanoma xenograft, irradiated human breast tissue, FIG. 14 ai, bi, ci): superiority
senescence detection using the HIC assay ([2]; additional cellular systems, mouse models, human clinical samples, FIG. 14 aii, bii, cii): sensitive senescence detection
